20 compounds from the supplement of paper PMC8498969 can be followed below.

As usually defined, the IC50 is the concentration needed to halve the response being measured.

Assay [1] relates to HEK293. The experiment in a line: IC50 for inhibition of ZIKV NS1 production. As to the method: (§1)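 HEK293 cells in 1536-well plates were pre-treated with compound for 1 h, infected with ZIKV (MOI 1) for 24 h, and NS1 antigen (intra- plus extracellular) was measured by TR-FRET. Confirmation used 11-point 1:3 dilutions, and IC50 and maximal inhibition were fitted in GraphPad Prism.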

For assay [2], the system named is HEK293. Briefly: cytotoxicity IC50 (ATP content, uninfected cells); higher = less cytotoxic. To be noted: infection: none.
For assay [3], the system named is HEK293. Briefly: maximal inhibition of ZIKV NS1 production (% inhibition); higher = stronger antiviral effect. Here is the method:
as §1

Some results are limits rather than exact numbers.

With `CN(C)C(=S)SSC(=S)N(C)C`, the IC50 in assay [1] amounted to 0.51 µM. For the same compound, the “cytotoxicity IC50” value in assay [2] was found to be 0.18 µM. In addition, in assay [3], the maximal inhibition came out at 99.
As for `COC(=O)[C@]12CCC(C)(C)C[C@H]1[C@H]1C(=O)C=C3[C@@]4(C)C=C(C#N)C(=O)C(C)(C)[C@@H]4CC[C@@]3(C)[C@]1(C)CC2`, in assay [1], the IC50 was 0.28 µM. In addition, the “cytotoxicity IC50” value in assay [2] was determined as 2.7 µM. Further, the maximal inhibition in assay [3] was found to be 100.
The compound `CC[C@@H]([C@H](C)O)n1ncn(-c2ccc(N3CCN(c4ccc(OC[C@@H]5CO[C@@](Cn6cncn6)(c6ccc(F)cc6F)C5)cc4)CC3)cc2)c1=O` showed an IC50 in assay [1] of 18 µM. In assay [2], the “cytotoxicity IC50” value worked out at 9.7 µM. In addition, the maximal inhibition in assay [3] worked out at 73.
In the same order, the values of `COc1cccc2nc(-c3cccs3)nc(NN3C(=O)C=C(C)C3=O)c12` are 11 µM, 50 µM and 103.
For `O=C(Nc1ncc(-c2cc(C(F)F)nn2-c2c(Cl)cccc2Cl)s1)C1CC1` the same measures were 1.2 µM, more than 100 µM and 92.
In assay [1], `S=C(SSC(=S)N1CCCCC1)N1CCCCC1` showed an IC50 of 0.87 µM. For the same compound, the “cytotoxicity IC50” value in assay [2] was 0.097 µM. Besides, the maximal inhibition in assay [3] came out at 86.
`CC[C@@]1([C@@H]2O[C@@H]([C@H]3O[C@@](O)(CO)[C@H](C)C[C@@H]3C)C[C@@H]2C)CC[C@H]([C@]2(C)CC[C@]3(C[C@H](O)[C@@H](C)[C@@H]([C@@H](C)[C@@H](OC)[C@H](C)C(=O)O)O3)O2)O1` yielded an IC50 in assay [1] of 2.8 µM. Moreover, the “cytotoxicity IC50” value in assay [2] was more than 100 µM. In assay [3], this compound showed a maximal inhibition of 103.
In the same order, the values of `C/C=C(\C)C(=O)N[C@@H](c1ccccc1)[C@@H](O)C(=O)O[C@H]1C[C@@]2(O)[C@@H](OC(=O)c3ccccc3)[C@@H]3[C@]4(OC(C)=O)CO[C@@H]4C[C@H](O)[C@@]3(C)C(=O)[C@H](OC(C)=O)C(=C1C)C2(C)C` are 0.22 µM, more than 100 µM and 67.
`CCN1/C(=C/C=C/c2sc3ccccc3[n+]2CC)Sc2ccccc21`: the IC50 in assay [1] worked out at 50 µM. For the same compound, the “cytotoxicity IC50” value in assay [2] is 1.2 µM. The maximal inhibition in assay [3] is 71.
In the same order, the values of `C[C@@]12C(=O)OC(=O)[C@]1(C)[C@H]1CC[C@@H]2O1` are 5.5 µM, more than 100 µM and 100.
In the same order, the values of `Cc1cc(C2CCCCC2)n(O)c(=O)c1` are 14 µM, 20 µM and 100.
`COc1c(OCCCN2CCOCC2)ccc2c3n(c(=NC(=O)c4cnc(N)nc4)nc12)CCN3` came in with an IC50 in assay [1] of 2.1 µM. In addition, the “cytotoxicity IC50” value in assay [2] turned out to be 22 µM. For the same compound, the maximal inhibition in assay [3] stood at 71.
In the same order, the values of `COc1cc([C@@H]2c3cc4c(cc3[C@@H](O[C@@H]3O[C@@H]5CO[C@@H](C)O[C@H]5[C@H](O)[C@H]3O)[C@H]3COC(=O)[C@H]23)OCO4)cc(OC)c1O` are 2.2 µM, more than 100 µM and 102.
For `NCC(=O)Nc1ccc(-n2nc(C(F)(F)F)cc2-c2ccc3c(ccc4ccccc43)c2)cc1` the same measures were 0.99 µM, 10 µM and 106.
For `CC(C)COCC(CN(Cc1ccccc1)c1ccccc1)N1CCCC1` (stereo not given) the same measures were 43 µM, more than 100 µM and 55.
Consider `O=C1c2ccccc2-[n+]2ccc3c([nH]c4ccccc43)c21`, for which the IC50 in assay [1] amounted to 2 µM. Further, the “cytotoxicity IC50” value in assay [2] came to 7.5 µM. This compound also yielded a maximal inhibition in assay [3] of 86.
As to `O=c1[nH]c2ccc(Cl)cc2c(N[C@@H]2CN3CCC2CC3)c1-c1nc2ccccc2[nH]1`, in assay [1], the IC50 came out at 0.41 µM. For the same compound, the “cytotoxicity IC50” value in assay [2] was found to be 3.3 µM. In assay [3], this compound gave a maximal inhibition of 100.
In the same order, the values of `CN(C)c1ccc(C(=C2C=CC(=[N+](C)C)C=C2)c2ccccc2)cc1` are 1.6 µM, 1.8 µM and 102.
For the compound `CC1=CC(=O)c2ccccc2C1=O`, the IC50 in assay [1] turned out to be 44 µM. Besides, the “cytotoxicity IC50” value in assay [2] was determined as 45 µM. Besides, in assay [3], the maximal inhibition came out at 101.
In the same order, the values of `C[C@H]1O[C@@H](O[C@H]2[C@@H](O)C[C@H](O[C@H]3[C@@H](O)C[C@H](O[C@H]4CC[C@@]5(C)[C@H](CC[C@@H]6[C@@H]5C[C@@H](O)[C@]5(C)[C@@H](C7=CC(=O)OC7)CC[C@]65O)C4)O[C@@H]3C)O[C@@H]2C)C[C@H](O)[C@@H]1O` are 0.15 µM, 60 µM and 104.
